{"source": "paper PMC10629583", "about": "“Specific inhibition of an anticancer target, polo-like kinase 1, by allosterically dismantling its mechanism of substrate recognition” (Proceedings of the National Academy of Sciences of the …, 2023)", "key": {"[1]": {"molecular_target": "T1, PBD1 F559E mutant (Homo sapiens, UniProt P53350, F559E)", "T1 construct": "constructs expressing PBD1 (residues 345–603) WT (pKM7650), F559D (pKM7878), F559E (pKM7879); His; TEV site (N); made in house; host or cells: bacteria (E. coli)", "T1 sequence (P53350 345-603 F559E)": "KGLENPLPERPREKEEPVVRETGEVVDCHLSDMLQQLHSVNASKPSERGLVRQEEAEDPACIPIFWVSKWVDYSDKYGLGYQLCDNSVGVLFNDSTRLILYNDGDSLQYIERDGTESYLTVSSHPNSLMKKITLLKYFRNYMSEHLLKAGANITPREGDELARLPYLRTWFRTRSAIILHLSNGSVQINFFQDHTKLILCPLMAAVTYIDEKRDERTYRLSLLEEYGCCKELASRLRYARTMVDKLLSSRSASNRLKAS", "test": "FP-based binding/inhibition assay, PBD1 F559E", "conditions": "PBD1 F559E at EC85", "description": "(§1) FP assays were carried out essentially as described previously ([35], [36]). FITC-conjugated ligands (15 nM) were mixed with PBDs at their EC85 concentrations. All the samples were analyzed approximately 30 min after reaction in a 384-well format using the SpectraMax Paradigm multimode microplate detection platform (Molecular Devices). Data were analyzed after carrying out at least three independent experiments using GraphPad Prism software version 8.\n(§2) Fig. S4. Generation of F559 mutants for in vitro and cell-based assays in Fig. 4. (A) SDS-PAGE showing the proteins used for the FP assays in Fig. 4 A and B. CBB, a Coomassie Brilliant Blue– stained gel. (B) Summary of Kd and EC85 values for PBD1 WT and mutants. The Kd values for PBD1 WT and mutants were determined after extrapolating them from the binding curves as the concentration at which 50% of the FITC-Ahx-DPPLHSpTAI-NH2 are PBD1-bound. The EC85 values indicate the effective concentration of 85% of the maximal concentration calculated for each protein. The FP values were obtained 30 minutes after incubation. For the F559K and F559R mutants, we were not able to determine the EC85 values and therefore used 2 µM of these proteins for the assays in Fig. 4B. N.D., not determined. […]"}, "[2]": {"molecular_target": "T2, PBD1 F559K mutant (Homo sapiens, UniProt P53350, F559K)", "T2 construct": "constructs expressing PBD1 (residues 345–603) WT (pKM7650); His; TEV site (N); made in house; host or cells: bacteria (E. coli)", "T2 sequence (P53350 345-603 F559K)": "as the sequence (P53350 345-603 F559E) above, with E215K counted along it", "test": "FP-based binding/inhibition assay, PBD1 F559K", "conditions": "PBD1 F559K, 2 µM protein", "description": "as §1, §2"}, "[3]": {"molecular_target": "T3, PBD1 F559R mutant (Homo sapiens, UniProt P53350, F559R)", "T3 construct": "constructs expressing PBD1 (residues 345–603) WT (pKM7650); His; TEV site (N); made in house; host or cells: bacteria (E. coli)", "T3 sequence (P53350 345-603 F559R)": "as the sequence (P53350 345-603 F559E) above, with E215R counted along it", "test": "FP-based binding/inhibition assay, PBD1 F559R", "conditions": "PBD1 F559R, 2 µM protein", "description": "as §1, §2"}, "[4]": {"molecular_target": "T4, PBD3 A612F mutant (Homo sapiens, UniProt Q9H4B4, A612F)", "T4 construct": "MBP-PBD3-His (335–646) (pKM3359) and its A612F (pKM7981); His (C); made in house; host or cells: bacteria (E. coli)", "T4 sequence (Q9H4B4 335-646 A612F)": "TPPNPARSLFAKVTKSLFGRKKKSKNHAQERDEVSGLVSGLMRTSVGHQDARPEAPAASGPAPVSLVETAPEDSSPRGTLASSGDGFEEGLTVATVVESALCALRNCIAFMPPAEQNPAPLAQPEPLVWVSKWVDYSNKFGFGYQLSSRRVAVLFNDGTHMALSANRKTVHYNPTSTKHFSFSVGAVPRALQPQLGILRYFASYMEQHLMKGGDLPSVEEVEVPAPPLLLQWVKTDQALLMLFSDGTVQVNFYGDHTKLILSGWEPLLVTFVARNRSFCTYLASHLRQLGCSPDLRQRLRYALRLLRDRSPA", "test": "FP-based inhibition assay, PBD3 A612F", "format": "binding", "conditions": "MBP-PBD3 A612F", "description": "as §1\nFig. S3. Sequence alignment showing unique PBD2 S652 and PBD3 A612 residues and FP-based Allopole-A inhibition assays carried out with PBD2 S652F and PBD A612F mutants. (A) Human PBD1 (Uniprot ID: P53350), PBD2 (Uniprot ID: Q9NYY3), and PBD3 (15niport ID:Q9H4B4) sequences were aligned using Clustal Omega. The polo-box cap and L1 loop regions were adjusted based on the structural superposition of PBD1 (PDB ID: 3HIK), PBD2 (PDB_ID: 4RS6), and the AlphaFold model of PBD3 (https://alphafold.ebi.ac.uk). […]\nwith PBD2 and MBP-PBD3 are working properly under our conditions. […] The Kd values for the indicated proteins were determined after extrapolating them from the binding curves as the […]\nconcentration at which 50% of FITC-conjugated ligands (FITC-GPMQTSpTPKNG for PBD2 and FITC-GPLATSpTPKNG for PBD3) (5) are protein-bound. The EC85 values indicate the effective concentration of 85% of the maximal concentration calculated for each protein. […]"}, "[5]": {"tested_on": "Flag-Plk1 interactions with p-PBIP1, Bub1, BubR1, Cdc25C", "test": "Coimmunoprecipitation, HeLa cells expressing Flag-Plk1", "format": "cell-based", "conditions": "20 μM for 2 h, nocodazole + okadaic acid", "description": "For coimmunoprecipitation analyses shown in Figs. 1C and 4F, HeLa cells stably expressing PCMV-Flag-Plk1 WT (pKM3863) (Fig. 1C) and its respective F559D mutant (pKM7979) (Fig. 4F) were generated using a lentiviral expression system. Prior to harvest, the cells were treated with 600 nM of nocodazole and 300 nM of okadaic acid (OA) for 16 h and 1.5 h, respectively, to enrich the level of phosphorylated proteins and additionally treated with either control DMSO or 20 μM of Allopole for 2 h. Immunoprecipitation was carried out essentially as described previously ([49]) in TBSN buffer [20 mM Tris–Cl (pH 8.0), 150 mM NaCl, 0.5% NP-40, 5 mM EGTA, 2 mM MgCl2, 1.5 mM EDTA, 2 mM DTT, 20 mM p-nitrophenyl phosphate (PNPP), and protease inhibitor cocktail (Roche)] using anti-Flag antibody (Sigma-Aldrich). Immunoprecipitates were separated by sodium dodecyl sulfate–polyacrylamide gel electrophoresis (SDS-PAGE) and then immunoblotted according to standard procedures using an enhanced chemiluminescence detection system (Thermo Fisher Scientific). The antibodies that were used to detect specific indicated proteins in Fig. 1C are listed in SI Appendix, Table S6."}, "[6]": {"tested_on": "U2OS cells expressing Pendo-mGFP-Plk1 WT", "test": "MTS proliferation assay, U2OS Plk1 RNAi cells expressing WT Plk1", "format": "cell-based", "conditions": "WT Plk1, 3 to 6 μM, 36 h", "description": "Cell viability was determined using the […] CellTiter 96® AQueous One Solution Cell Proliferation Assay (MTS) kit (Promega) containing a tetrazolium compound [3-(4,5-dimethylthiazol-2-yl)-5-(3-carboxymethoxy-phenyl)-2-(4-sulfophenyl)-2H-tetrazolium, inner salt (MTS)] and an electron-coupling phenazine ethosulfate. For the MTS assays in Fig. 1B, L363 cells cultured in a 96-well plate were treated with the indicated compounds for 48 h (the final volume of 100 μL). After the compound treatment, cells were additionally treated with 20 μL of the MTS solution and incubated at 37 °C for 2 to 4 h in a humidified 5% CO2 atmosphere. The absorbance of the resulting sample was measured at 490 nm using a PerkinElmer EnSpire Multimode 96-well plate reader. For the MTS assays in Fig. 4E, U2OS cells stably expressing either Pendo-mGFP-Plk1 WT or F559D were seeded at approximately 5,000 cells/well in a 96-well plate, depleted of endogenous Plk1 by RNAi, and then treated with either control DMSO or Allopole as indicated in the schematic diagram in SI Appendix, Fig. S4E."}}}
{"smiles": "O=c1c2sc(Cl)cc2n2c(=S)[nH]nc2n1CC1CC1", "note": "[Allopole-A]", "values": [{"measurement": "Inhibition of FITC-phosphopeptide binding (in words)", "setting": "[1]", "result": "failed to inhibit"}, {"measurement": "Inhibition of FITC-phosphopeptide binding (in words)", "setting": "[2]", "result": "failed to inhibit"}, {"measurement": "Inhibition of FITC-phosphopeptide binding (in words)", "setting": "[3]", "result": "failed to inhibit"}, {"measurement": "Inhibition in FP assay (in words)", "setting": "[4]", "result": "not inhibitable"}]}
{"smiles": "Cn1cnc([N+](=O)[O-])c1Sc1nnc2n(CC3CC3)c(=O)c3sc(Cl)cc3n12", "note": "[Allopole]", "values": [{"measurement": "Phosphoproteins coprecipitating with Flag-Plk1 (in words)", "setting": "[5]", "result": "greatly diminished the amounts of these proteins coprecipitating with Plk1"}, {"measurement": "Proliferation rate (in words)", "setting": "[6]", "result": "significant reduction in their proliferation rate"}]}
